Reference: patent US11198673B2, “Therapeutic compounds and compositions” (eXIthera Pharmaceuticals, Inc., priority 2014, dated 2021)

Experiments:
[1] = β-Lactam stability in rat plasma; type: in vitro ADME; details: normal rat plasma, room temperature; read-out: Rat Plasma Stability (T1/2; min)
Summary of the method: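 Compounds incubated in normal rat plasma at room temperature, sampled into acetonitrile from 2 to 480 min. Supernatants analysed by HPLC-MS on C18, extracted ion chromatograms of parent and parent+18 (H2O adduct) integrated; T½ = ln(2)/k from single-phase exponential decay fit.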

[2] = target: T1, Factor Xa (Homo sapiens, UniProt P00742); test: Dose response assay for protease inhibitors: Factor Xa (FXIa fold selectivity); type: biochemical; details: fold selectivity for FXIa over Factor Xa
T1 construct: Factor Xa; 0.2 μM in 50% glycerol (9.2 μg/mL)
T1 sequence (P00742 235-488 limits assumed): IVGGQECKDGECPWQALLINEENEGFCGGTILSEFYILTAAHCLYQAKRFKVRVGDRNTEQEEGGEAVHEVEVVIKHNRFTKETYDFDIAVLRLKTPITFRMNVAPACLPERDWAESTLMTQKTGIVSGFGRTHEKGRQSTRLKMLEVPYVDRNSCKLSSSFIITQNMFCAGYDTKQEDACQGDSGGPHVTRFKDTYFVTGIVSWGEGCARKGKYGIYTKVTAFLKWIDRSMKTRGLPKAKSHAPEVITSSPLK
T1 sequence (P00742 41-179 partner limits assumed): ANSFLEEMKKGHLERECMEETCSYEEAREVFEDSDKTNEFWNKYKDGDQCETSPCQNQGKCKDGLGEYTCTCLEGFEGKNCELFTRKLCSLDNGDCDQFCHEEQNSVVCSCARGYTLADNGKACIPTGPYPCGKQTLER
Method: (§1) • Assay buffer: 20 mM Hepes, pH 7.4; 150 mM NaCl; 0.02% Tween 20 • Compounds: 10 mM stocks in DMSO • Substrate: 20 mM Glp-Pro-Arg-AMC, 25 mg/2.3 mL H2O (store at +4° C.) [Factor XIa, thrombin, and trypsin] • 20 mM Pro-Phe-Arg-AMC (Bachem I-1295), 25 mg/2.2 mL H2O (store at +4° C.) [Factor Xa] • Enzyme: Factor XIa; 0.25 μM in 50% glycerol (20 μg/mL) • Trypsin; 0.2 μM in 50% glycerol (4.8 μg/mL) • Thrombin; 0.2 μM in 50% glycerol (7.34 μg/mL) • Factor Xa; 0.2 μM in 50% glycerol (9.2 μg/mL) • These stocks are aliquoted ([…]) and stored at −20° C. Methods: • 1. Dilute the substrate to 100 μM in assay buffer (30 μL/6 mL). The enzyme is diluted to 0.5 nM just prior to use (12 μL/6 mL for Factor XIa; 15 μL/6 mL for all of the rest.) • 2. Pipette 50 μL of substrate into each well of the 96 well (12×8) microtiter plate. (Column 1 is used as the 100% activity control and receives no compound, and Column 12 is the blank and receives no enzyme.) Add an additional 46 μL to column 2. • 3. Pipette 4 μL of each compound into the appropriate well in column 2 of the plate (unknowns assayed in triplicate, standard assayed in duplicate). The final compound concentration will be 1/50th of the stock. • 4. Serially two-fold dilute the compound by mixing the sample in column 2, removing 50 μL to the next well (column 3), mix and remove to column 4, etc. until column 11. After mixing column 11, remove 50 μL and discard. • 5. Pipette 50 μL of buffer into column 12. Initiate the reaction by adding 50 μL of enzyme solution to each well of columns 1-11 as rapidly as possible. • 6. Read the plate in a spectrophotometer (SpectraMax) at 30° C., wherein each well is measured every 60 s for 30 min. For Factor Xa assays, each well is measured every 1 min for a total of 60 min. • 7. For Factor XIa assays, the compounds are assayed, in duplicate, at 3 different starting concentrations, 20, 2, and 0.2 μM; 1:10, 1:100, and 1:1000 dil'n of 10 mM stock. All data sets are combined for graphing and data fitting. • 8. Data can be used both for estimation of IC50 and for estimation of Kon.

[3] = system: Trypsin; test: Dose response assay for protease inhibitors: trypsin (FXIa fold selectivity); type: biochemical; details: fold selectivity for FXIa over trypsin
Method: as §1

[4] = target: T2, Thrombin (Homo sapiens, UniProt P00734); test: Dose response assay for protease inhibitors: thrombin (FXIa fold selectivity); type: biochemical; details: fold selectivity for FXIa over thrombin
T2 construct: Thrombin; 0.2 μM in 50% glycerol (7.34 μg/mL)
Method: as §1

[5] = target: T3, human Factor XIa (Homo sapiens, UniProt P03951); test: Factor XIa enzyme inhibition assay (IC50, purified enzyme); type: biochemical; details: purified enzyme 0.25 nM, substrate 50 μM; read-out: Potency hFXIa IC50
T3 construct: Enzyme: Factor XIa; 0.25 μM in 50% glycerol (20 μg/mL)
T3 sequence (P03951 388-625 limits assumed): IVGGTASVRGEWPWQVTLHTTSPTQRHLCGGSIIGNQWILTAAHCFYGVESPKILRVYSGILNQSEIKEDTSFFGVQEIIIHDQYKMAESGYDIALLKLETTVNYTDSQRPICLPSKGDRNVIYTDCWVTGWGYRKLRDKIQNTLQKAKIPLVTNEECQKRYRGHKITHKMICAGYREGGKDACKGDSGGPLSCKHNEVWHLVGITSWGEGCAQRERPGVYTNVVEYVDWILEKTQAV
T3 sequence (P03951 19-387 partner limits assumed): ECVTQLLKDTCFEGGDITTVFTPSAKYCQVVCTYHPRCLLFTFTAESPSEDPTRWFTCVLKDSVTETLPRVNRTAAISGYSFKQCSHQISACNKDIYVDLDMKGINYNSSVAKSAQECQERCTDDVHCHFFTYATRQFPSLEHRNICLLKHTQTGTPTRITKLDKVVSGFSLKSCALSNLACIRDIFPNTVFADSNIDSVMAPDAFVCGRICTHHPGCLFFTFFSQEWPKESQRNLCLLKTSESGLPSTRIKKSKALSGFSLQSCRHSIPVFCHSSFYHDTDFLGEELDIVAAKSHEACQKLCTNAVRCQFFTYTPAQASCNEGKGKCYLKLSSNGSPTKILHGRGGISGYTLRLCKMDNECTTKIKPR
Summary of the method: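 Fluorogenic Glp-Pro-Arg-AMC cleavage, 50 μM substrate, 0.25 nM enzyme, in 20 mM Hepes pH 7.4, 150 mM NaCl, 0.02% Tween 20. Serial two-fold compound dilutions from starting concentrations of 20, 2 and 0.2 μM. Read every minute for 30 min at 30° C; IC50 from a four-parameter fit of dose-response.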

| Structure (SMILES) | half-life [1] [h] | FXIa Fold Selectivity FXa [2] | FXIa Fold Selectivity Trypsin [3] | FXIa Fold Selectivity Thrombin [4] | IC50 [5] [nM] |
| --- | --- | --- | --- | --- | --- |
| CCC[C@@H](NC(=O)N1C(=O)[C@H](Cc2ccnc(N)c2)[C@H]1C(=O)O)c1ccc2c(c1)OC(F)(F)O2 [Example 89] | > 1.67 | G (“G” indicates 1-500) | G (“G” indicates 1-500) | I (“I” indicates >1000) | < 10 |
| CNc1cc(C[C@H]2C(=O)N(C(=O)N[C@H](C)c3ccc4c(c3)OC(F)(F)O4)[C@@H]2C(=O)O)ccn1 [Example 98] | > 1.67 | G (“G” indicates 1-500) | I (“I” indicates >1000) | I (“I” indicates >1000) | < 10 |
| CCOC(=O)[C@@H]1[C@@H](Cc2ccnc(NC)c2)C(=O)N1C(=O)N[C@H](C)c1ccc2c(c1)OC(F)(F)O2 [Example 99] | < 1.67 | I (“I” indicates >1000) | G (“G” indicates 1-500) | I (“I” indicates >1000) | < 10 |
| CCOC(=O)[C@@H]1[C@@H](Cc2ccnc(N)c2)C(=O)N1C(=O)N[C@H](C)c1ccc(OC(F)(F)F)cc1 [Example 103] | < 1.67 | I (“I” indicates >1000) | G (“G” indicates 1-500) | H (“H” indicates 500-1000) | < 10 |
| C[C@@H](NC(=O)N1C(=O)[C@H](Cc2ccnc(N)c2)[C@H]1C(=O)O)C1CCCCCCC1 [Example 104] | > 1.67 | I (“I” indicates >1000) | I (“I” indicates >1000) | I (“I” indicates >1000) | < 10 |
| O=C(O)[C@@H]1[C@@H](Cc2ccncc2)C(=O)N1C(=O)NC(c1ccccc1)c1ccccc1 [Example 123] | > 1.67 | G (“G” indicates 1-500) | G (“G” indicates 1-500) | G (“G” indicates 1-500) | 100 to 1000 |
| C[C@H](NC(=O)N1C(=O)[C@H](Cc2ccnc(N)c2)[C@H]1C(=O)O)c1ccc2c(c1)OC(F)(F)O2 [Example 130] | > 1.67 | G (“G” indicates 1-500) | G (“G” indicates 1-500) | G (“G” indicates 1-500) | 100 to 1000 |
| CCOC(=O)[C@@H]1C(Cc2ccnc(Cl)c2)C(=O)N1C(=O)N[C@H](C)c1ccc2c(c1)OC(F)(F)O2 (some centres unmarked) [Example 132] | < 1.67 | G (“G” indicates 1-500) | G (“G” indicates 1-500) | G (“G” indicates 1-500) | 100 to 1000 |
| O=C(O)[C@@H]1[C@@H](Cc2ccncc2)C(=O)N1C(=O)N[C@@H](C1CCCCC1)C(F)(F)F [Example 135] | > 1.67 | G (“G” indicates 1-500) | G (“G” indicates 1-500) | G (“G” indicates 1-500) | 100 to 1000 |
| CCOC(=O)[C@@H]1[C@@H](Cc2ccnc(NC(=O)OCOC(=O)C(C)C)c2)C(=O)N1C(=O)N[C@H](C)C1CCCCC1 [Example 137] | < 1.67 | H (“H” indicates 500-1000) | I (“I” indicates >1000) | I (“I” indicates >1000) | 10 to 100 |
